Experimental data taken from ChEMBL document CHEMBL1159228, “The 1994 Japan-U.S. Seminar on Bioorganic Marine Chemistry, Meeting Report” (J Nat Prod, 1995).
Converted amounts (≈) assume the structure as drawn.

Assays:
[1] = Inhibition of inosine-5'-monophosphate dehydrogenase
[2] = system: L1210; experiment: Cytotoxicity against mouse L1210 cells; assay type: functional, cell-based
[3] = system: B16; experiment: In vivo cytotoxicity against mouse B16 cells relative to control; assay type: functional
[4] = system: P388; experiment: In vivo cytotoxicity against mouse P388 cells relative to control; assay type: functional
[5] = system: M5076; experiment: In vivo cytotoxicity against mouse M5076 cells relative to control; assay type: functional
[6] = In vivo cytotoxicity against mouse LLC cells relative to control; assay type: functional, Lewis lung carcinoma
[7] = system: Colon 26; experiment: In vivo cytotoxicity against mouse Colon 26 cells at 80 ug/kg relative to control; assay type: functional
[8] = system: P388; experiment: In vivo cytotoxicity against mouse P388 cells at 80 ug/kg relative to control; assay type: functional
[9] = In vivo cytotoxicity against mouse LLC cells at 40 ug/kg relative to control; assay type: functional, Lewis lung carcinoma
[10] = In vivo cytotoxicity against mouse EAC cells at 40 ug/kg relative to control; assay type: functional, Ehrlich
[11] = system: B16; experiment: In vivo cytotoxicity against mouse B16 cells at 40 ug/kg relative to control; assay type: functional
[12] = Molluscicidal activity against common snail; assay type: organism-based; details: cornu aspersum, in vivo; read-out: LD50 (the source's name)
[13] = Ichthyotoxicity against Carassius auratus; assay type: organism-based; details: in vivo
[14] = system: P388; experiment: Cytotoxicity against mouse P388 cells; assay type: functional, cell-based

Oc1c(Oc2c(O)c(Br)c(Br)c(Br)c2Br)cc(Br)c(Br)c1Br
IC50 [1]: 1000 µM

C/C=C\[C@H](C)[C@@H]1O[C@]1(C)[C@@H](O)[C@@H](C)C(=O)[C@@H](CO)[C@@H](O)CC(=O)CC
IC50 [2]: 100 ng/mL (≈ 281 nM)

COc1c(C)cc2c(c1O)[C@@H]1[C@@H]3[C@H]4SCC(N)C(=O)OC[C@@H](c5c(O)c(OC)c(C)c(OC(C)=O)c54)N3[C@@H](O)[C@H](C2)N1C (stereo partly specified)
T/C [3]: 241% | T/C [4]: 213% | T/C [5]: 210% | T/C [6]: 0%

COc1c(C)cc2c(c1O)[C@@H]1[C@@H]3[C@H]4SCC(=O)C(=O)OC[C@@H](c5c(O)c(OC)c(C)c(OC(C)=O)c54)N3[C@@H](O)[C@H](C2)N1C
T/C [3]: 241% | T/C [4]: 213% | T/C [5]: 210% | T/C [6]: 0%

C#CC(O)/C=C/CCCCCCCCC/C=C\CCCCCCCCCCCC/C=C\CC#CC(=O)O (stereo unspecified)
IC50 [1]: 1000 µM

C=C1C(O)CC(=O)C(C)/C=C(\C)C[C@@H](O)[C@]2(O)O[C@H](CC[C@H]2O)CC(O)CCC(O)C(CCCC)OC(=O)C(C)C(O)C2OC12 (stereo partly specified) [AMPHIDINOLIDE N]
IC50 [2]: 0.05 ng/mL (≈ 0.0778 nM)

COCC(C(=O)O[C@@H]1C/C=C/C=C/C(=O)O[C@H]([C@@H](C)[C@@H](O)[C@@H](C)CC[C@@H](OC(=O)C(C)N(C)C)[C@H](C)[C@H](OC(C)=O)[C@H](C)/C=C/N(C)C=O)C/C=C/[C@H](OC)C[C@H](C)C/C=C(\C)[C@@H](OC)CC[C@@H](C)[C@@H](O)[C@@H]1C)N(C)C (stereo partly specified) [APLYRONINE A]
T/C [7]: 255% | T/C [8]: 545% | T/C [9]: 556% | T/C [10]: 398% | T/C [11]: 201%

CO/C(=C\C(=O)N(C)[C@@H](Cc1ccccc1)c1nccs1)C[C@H](C)C(Cl)(Cl)Cl [BARBARAMIDE A]
LC50 [12]: < 100000 ng/mL

O=C1NCCc2cc(Br)c(O)c(c2)Oc2ccc(cc2Br)[C@H](O)CNC(=O)/C(=N/O)Cc2cc(Br)c(O)c(c2)Oc2c(Br)cc(cc2Br)C/C1=N\O [BASTADIN 8]
IC50 [1]: 1000 µM

CC1=C(O)/C(=C/C(C)CCCC(C)/C=C/C=C(\C)CCCc2ccoc2)OC1=O (stereo unspecified) [FASCICULATIN]
IC50 [1]: 1000 µM

C=C(CCNC(=O)CC/C=C/C[C@H](CCCCCCC)OC)[C@@]12O[C@@H]1CC=C(C)C2=O [MALYNGAMIDE H]
LC50 [13]: 25000 ng/mL (≈ 57900 nM)

C[C@@H]1[C@@]2(CC[C@](C)(O)CO2)O[C@H]2C=C3[C@@H]4[C@@H](O)C[C@H]5Cc6nc7c(nc6C[C@]5(C)[C@H]4C[C@@H](O)[C@]3(C)[C@]21O)C[C@@H]1CC[C@@H]2[C@H](CC(=O)[C@]23C[C@@H]2O[C@@]4(CCC(C)(C)O4)[C@@H](C)[C@@H]2[C@]3(C)O)[C@@]1(C)C7 [RITTERAZINE A]
IC50 [14]: 0.018 ng/mL (≈ 0.0197 nM)

COc1cc2c(cc1O)CCN[C@]21CS[C@@H]2c3c(OC(C)=O)c(C)c4c(c3[C@H](COC1=O)N1[C@@H]2[C@H]2c3c(cc(C)c(OC)c3O)C[C@@H]([C@@H]1O)N2C)OCO4 [TRABECTEDIN]
T/C [3]: 241% | T/C [4]: 213% | T/C [5]: 210% | T/C [6]: 0%
